23 compounds from ChEMBL document CHEMBL1201862, “PubChem BioAssay data set” (2004) can be followed below.

SMILES strings stand for the structures. Active and inactive are the calls of the source. Where only a bound is given, the exact number is not on record here.

Test [1] deals with T1, Zinc finger protein mex-5 (Caenorhabditis elegans, UniProt Q9XUB2).
T1 sequence (Q9XUB2 whole entry): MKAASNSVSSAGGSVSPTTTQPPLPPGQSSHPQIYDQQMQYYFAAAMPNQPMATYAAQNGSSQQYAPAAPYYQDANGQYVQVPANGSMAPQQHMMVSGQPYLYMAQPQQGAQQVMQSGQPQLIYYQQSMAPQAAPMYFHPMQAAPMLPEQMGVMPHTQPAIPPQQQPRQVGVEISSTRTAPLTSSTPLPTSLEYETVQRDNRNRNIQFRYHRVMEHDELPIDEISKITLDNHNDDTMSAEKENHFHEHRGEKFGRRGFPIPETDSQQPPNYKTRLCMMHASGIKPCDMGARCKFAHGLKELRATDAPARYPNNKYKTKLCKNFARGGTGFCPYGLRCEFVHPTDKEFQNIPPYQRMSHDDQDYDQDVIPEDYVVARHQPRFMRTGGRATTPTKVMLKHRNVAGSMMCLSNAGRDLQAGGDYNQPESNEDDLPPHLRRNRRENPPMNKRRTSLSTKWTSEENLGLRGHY
The test can be described thus: potency of MEX-5 RNA-binding blockers – biochemical, C. elegans, fluorescence polarization, dose response (AID 1960).

For test [2], the target named is T2, RNA-binding protein pos-1 (Caenorhabditis elegans, UniProt G5EF15).
T2 sequence (G5EF15 whole entry): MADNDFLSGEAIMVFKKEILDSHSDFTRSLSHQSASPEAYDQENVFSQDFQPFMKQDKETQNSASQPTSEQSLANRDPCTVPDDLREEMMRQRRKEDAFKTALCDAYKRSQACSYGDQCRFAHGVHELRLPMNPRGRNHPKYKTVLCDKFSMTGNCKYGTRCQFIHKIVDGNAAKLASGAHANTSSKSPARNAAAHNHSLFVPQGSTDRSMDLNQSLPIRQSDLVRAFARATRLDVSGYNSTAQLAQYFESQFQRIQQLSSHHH
The experiment in a line: disruptors of C. elegans POS-1 RNA interaction – biochemical, fluorescence polarization, dose response (AID 1964).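 Further: purified POS-1 fused to maltose binding protein made in E. coli; potency of compounds blocking POS-1 binding to fluorescent RNA.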 On the technique in general: In fluorescence polarisation assays a small probe gives low polarisation when free and higher when bound to something large.

In the next test the test system is H9c2. The test can be described thus: cells. The format is functional, cell-based. The note with it: Rattus norvegicus, H9c2, Myocardium.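 Further: confirmatory concentration-response retest of ultra-high-throughput screening hits for modulation of myocardial damage; cell death induced by hydrogen peroxide oxidative stress; compound pretreatment for 60 min then peroxide exposure for 2 h; potency is for protecting the cells against peroxide damage rather than for killing them.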
Test [3] concerns the target T3, Ubiquitin-conjugating enzyme E2 N (Homo sapiens, UniProt P61088).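 Further: Dose-response confirmation in a TR-FRET assay detecting UBC13-driven polyubiquitin chain formation, inhibition measured.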
T3 sequence (P61088 whole entry): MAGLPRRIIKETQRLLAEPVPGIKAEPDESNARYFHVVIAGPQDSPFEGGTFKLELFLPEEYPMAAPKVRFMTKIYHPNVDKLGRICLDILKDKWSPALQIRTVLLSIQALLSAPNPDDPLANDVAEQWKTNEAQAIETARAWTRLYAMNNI
Format: functional.

Another test relates to Streptococcus. The experiment in a line: GAS UMAA2166 growth inhibition – luminescence, BacTiterGlo, counter-screen for streptokinase expression inhibitor project, dose response (AID 1915).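 Further: potency for reduction of bacterial viability or growth.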 Format: functional, organism-based. In general terms: A counterscreen serves to expose hits that act by an unwanted route or on another target.
Another test has as its target T4, Streptokinase A (Streptococcus pyogenes serotype M1, UniProt P10520).
T4 sequence (P10520 whole entry): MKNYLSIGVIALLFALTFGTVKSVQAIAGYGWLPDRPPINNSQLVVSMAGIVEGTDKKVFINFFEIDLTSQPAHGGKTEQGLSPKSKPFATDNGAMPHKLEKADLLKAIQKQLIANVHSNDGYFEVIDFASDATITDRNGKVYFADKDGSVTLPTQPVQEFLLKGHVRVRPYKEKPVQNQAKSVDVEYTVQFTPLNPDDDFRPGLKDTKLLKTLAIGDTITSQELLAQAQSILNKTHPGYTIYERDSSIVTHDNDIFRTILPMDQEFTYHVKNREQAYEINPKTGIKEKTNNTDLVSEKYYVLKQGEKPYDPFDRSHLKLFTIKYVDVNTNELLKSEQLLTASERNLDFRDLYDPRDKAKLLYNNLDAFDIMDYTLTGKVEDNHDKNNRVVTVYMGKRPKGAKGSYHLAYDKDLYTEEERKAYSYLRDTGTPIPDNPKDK
The experiment in a line: viability-normalized secreted streptokinase activity reduction – plasminogen activation absorbance, OD405, dose response (AID 1914).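 Further: secreted streptokinase activity via plasminogen activation per viability signal from cell pellet.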 The format is functional, Streptococcus pyogenes M1 GAS.

The test system of test [4] is Streptococcus sp. 'group A'. The experiment in a line: Streptococcus pyogenes SK(-)GAS viability under kanamycin – luminescence, BacTiterGlo, confirmation, counter-screen for streptokinase expression inhibitor project, dose response (AID 1900). The format is functional, organism-based.
A short description of test [5]: microbe, parasite or virus in culture. The format is functional. The note with it: Mycobacterium tuberculosis.
A further test deals with T5, Estrogen receptor (Homo sapiens, UniProt P03372).
T5 sequence (P03372 whole entry): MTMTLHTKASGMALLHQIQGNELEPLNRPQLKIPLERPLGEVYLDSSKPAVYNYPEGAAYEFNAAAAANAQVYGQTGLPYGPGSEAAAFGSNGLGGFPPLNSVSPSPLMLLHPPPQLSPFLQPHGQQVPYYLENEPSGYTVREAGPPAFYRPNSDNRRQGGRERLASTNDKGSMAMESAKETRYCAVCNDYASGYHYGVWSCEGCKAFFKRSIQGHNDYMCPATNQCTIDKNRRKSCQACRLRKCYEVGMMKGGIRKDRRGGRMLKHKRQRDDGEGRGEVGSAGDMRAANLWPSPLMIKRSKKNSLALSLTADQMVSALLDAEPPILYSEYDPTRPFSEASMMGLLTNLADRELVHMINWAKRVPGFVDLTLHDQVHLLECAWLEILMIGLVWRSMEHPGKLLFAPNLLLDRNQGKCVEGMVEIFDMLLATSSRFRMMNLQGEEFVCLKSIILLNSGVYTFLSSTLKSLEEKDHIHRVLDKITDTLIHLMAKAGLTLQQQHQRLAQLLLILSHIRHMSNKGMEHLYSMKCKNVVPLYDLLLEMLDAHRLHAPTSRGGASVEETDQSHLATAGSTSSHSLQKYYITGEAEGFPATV

Test [6] deals with T6, Heat shock factor protein 1 (Mus musculus, UniProt P38532).
T6 sequence (P38532 whole entry): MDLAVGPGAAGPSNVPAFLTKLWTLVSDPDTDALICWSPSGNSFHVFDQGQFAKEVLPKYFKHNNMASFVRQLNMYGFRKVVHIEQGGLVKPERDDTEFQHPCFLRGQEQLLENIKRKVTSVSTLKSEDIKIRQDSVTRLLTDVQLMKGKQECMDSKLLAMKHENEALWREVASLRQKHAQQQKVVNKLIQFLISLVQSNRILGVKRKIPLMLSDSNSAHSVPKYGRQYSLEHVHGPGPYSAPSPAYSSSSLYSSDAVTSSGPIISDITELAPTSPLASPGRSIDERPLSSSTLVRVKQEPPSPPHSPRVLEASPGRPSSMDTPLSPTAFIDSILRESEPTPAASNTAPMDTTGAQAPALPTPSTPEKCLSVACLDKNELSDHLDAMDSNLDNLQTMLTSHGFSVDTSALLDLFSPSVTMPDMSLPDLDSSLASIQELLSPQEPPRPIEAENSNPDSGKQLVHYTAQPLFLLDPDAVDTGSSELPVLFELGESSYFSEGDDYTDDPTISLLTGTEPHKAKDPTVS
The test can be described thus: decrease of HSF1-responsive luciferase luminescence – cell-based, NIH3T3, dose retest, confirmation (AID 2382).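 Further: NIH3T3 fibroblasts with HSF1-driven luciferase reporter stressed by proteasome inhibitor MG132; luminescence from HSF1-driven luciferase expression after 8 hours of MG132 stress.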 The format is functional.

The target in another test is Cytochrome P450 2D6 (Homo sapiens, UniProt P10635).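 Further: CYP2D6 member of a cytochrome P450 panel assay.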
Another test deals with Cytochrome P450 2C9 (Homo sapiens, UniProt P11712).
The nature of test [7]: fluconazole-exposed Candida albicans growth modulators – fluorescence, retest, confirmation (AID 2467). The format is functional, cell-based.
A short description of test [8]: NIH-3T3 fibroblast cytotoxicity, dose response, cytotoxicity control, cell-based, fluorescence, Alamar Blue, secondary assay (AID 2327).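 Further: NIH-3T3 mouse fibroblasts cultured with fluconazole at 8 µg/mL.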 Format: functional. (The colour change of resazurin is a common sign of viable cells or microbes.)
In test [9] the target is T7, Rac GTPase-activating protein 1 (Homo sapiens, UniProt Q9H0H5).
T7 sequence (Q9H0H5 whole entry): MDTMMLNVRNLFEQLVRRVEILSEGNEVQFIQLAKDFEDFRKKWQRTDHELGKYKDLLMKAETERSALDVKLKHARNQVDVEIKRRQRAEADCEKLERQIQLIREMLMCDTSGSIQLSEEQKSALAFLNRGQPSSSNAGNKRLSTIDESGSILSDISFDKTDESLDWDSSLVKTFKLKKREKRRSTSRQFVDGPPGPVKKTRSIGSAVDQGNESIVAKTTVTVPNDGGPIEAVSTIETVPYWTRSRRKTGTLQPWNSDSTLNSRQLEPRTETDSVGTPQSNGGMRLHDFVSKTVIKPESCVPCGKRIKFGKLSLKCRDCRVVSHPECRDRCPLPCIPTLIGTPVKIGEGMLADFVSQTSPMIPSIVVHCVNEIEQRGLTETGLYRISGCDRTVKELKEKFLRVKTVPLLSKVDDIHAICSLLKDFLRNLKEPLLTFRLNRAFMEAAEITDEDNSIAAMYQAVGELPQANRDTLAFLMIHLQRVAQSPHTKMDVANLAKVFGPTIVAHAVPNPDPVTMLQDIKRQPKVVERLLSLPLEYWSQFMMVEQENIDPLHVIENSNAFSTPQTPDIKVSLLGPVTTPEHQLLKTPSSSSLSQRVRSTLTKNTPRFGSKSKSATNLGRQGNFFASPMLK
The experiment in a line: blockers of MgcRacGAP-driven Rac1 GTP hydrolysis – biochemical, ADP Hunter fluorescence, primary and confirmatory, confirmation (AID 624330). The format is functional.

For another test, the target named is Large T antigen (Simian virus 40, UniProt P03070). The format is functional, Betapolyomavirus macacae.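 Further: Confirmatory-stage PubChem screen for compounds that inhibit SV40 T antigen.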
Sequence of Large T antigen (P03070 whole entry): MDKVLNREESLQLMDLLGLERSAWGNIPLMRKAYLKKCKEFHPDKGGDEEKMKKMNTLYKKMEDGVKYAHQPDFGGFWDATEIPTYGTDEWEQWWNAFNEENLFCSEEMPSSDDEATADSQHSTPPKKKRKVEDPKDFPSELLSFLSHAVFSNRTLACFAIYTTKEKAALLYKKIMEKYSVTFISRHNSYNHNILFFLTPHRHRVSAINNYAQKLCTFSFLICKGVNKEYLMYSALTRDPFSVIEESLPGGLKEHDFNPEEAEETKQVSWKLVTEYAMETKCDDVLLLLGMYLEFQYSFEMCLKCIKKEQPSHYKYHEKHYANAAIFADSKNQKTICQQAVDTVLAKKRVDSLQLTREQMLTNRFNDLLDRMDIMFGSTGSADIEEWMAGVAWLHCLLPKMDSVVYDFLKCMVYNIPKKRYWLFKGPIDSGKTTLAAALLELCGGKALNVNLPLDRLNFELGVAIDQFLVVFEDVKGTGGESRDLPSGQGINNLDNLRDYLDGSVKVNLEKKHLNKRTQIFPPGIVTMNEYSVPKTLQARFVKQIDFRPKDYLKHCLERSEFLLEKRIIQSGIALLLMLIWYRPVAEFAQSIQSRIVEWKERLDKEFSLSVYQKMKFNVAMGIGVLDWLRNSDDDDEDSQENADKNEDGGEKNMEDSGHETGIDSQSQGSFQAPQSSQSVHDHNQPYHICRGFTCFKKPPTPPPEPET

Sequence of Cytochrome P450 2C9 (P11712 whole entry): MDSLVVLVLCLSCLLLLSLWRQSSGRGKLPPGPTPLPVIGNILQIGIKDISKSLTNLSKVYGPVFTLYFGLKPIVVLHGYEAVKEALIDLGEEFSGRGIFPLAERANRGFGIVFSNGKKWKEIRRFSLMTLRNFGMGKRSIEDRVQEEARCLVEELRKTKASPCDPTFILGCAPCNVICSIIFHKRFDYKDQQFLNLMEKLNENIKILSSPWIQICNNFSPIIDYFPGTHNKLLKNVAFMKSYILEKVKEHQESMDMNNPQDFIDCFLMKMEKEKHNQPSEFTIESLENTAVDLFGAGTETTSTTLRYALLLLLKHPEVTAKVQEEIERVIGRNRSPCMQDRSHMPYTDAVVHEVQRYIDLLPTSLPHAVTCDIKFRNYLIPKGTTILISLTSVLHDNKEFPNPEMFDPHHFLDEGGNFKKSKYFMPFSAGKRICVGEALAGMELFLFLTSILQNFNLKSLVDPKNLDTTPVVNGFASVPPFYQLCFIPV
Sequence of Cytochrome P450 2D6 (P10635 whole entry): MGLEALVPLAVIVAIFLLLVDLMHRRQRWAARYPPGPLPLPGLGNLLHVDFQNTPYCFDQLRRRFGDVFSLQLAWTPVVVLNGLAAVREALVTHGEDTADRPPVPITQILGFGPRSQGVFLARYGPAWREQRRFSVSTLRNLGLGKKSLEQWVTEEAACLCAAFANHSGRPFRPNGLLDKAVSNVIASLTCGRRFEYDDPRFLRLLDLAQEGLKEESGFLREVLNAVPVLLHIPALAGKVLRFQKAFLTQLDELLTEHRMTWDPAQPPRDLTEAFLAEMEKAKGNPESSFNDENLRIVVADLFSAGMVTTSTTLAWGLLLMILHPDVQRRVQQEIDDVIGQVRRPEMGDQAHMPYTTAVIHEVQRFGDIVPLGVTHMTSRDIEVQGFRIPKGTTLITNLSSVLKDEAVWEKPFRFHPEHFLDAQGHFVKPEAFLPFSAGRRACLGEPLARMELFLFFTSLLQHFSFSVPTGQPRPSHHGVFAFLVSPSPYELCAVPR

In the case of `CCN(CC)c1ccc(N/C=C2/C(=O)NC(=O)N(c3ccc(OC)cc3)C2=O)cc1`, the concentration for a half-maximal effect (EC50) is 6.36 µM (active) in test [1] and 9.58 µM (inconclusive) in test [2].

As for `CC(OC(=O)Cc1nnc(O)c2ccccc12)C(=O)Nc1ccc(F)cc1Cl` (stereo unspecified), the IC50 in the test with H9c2 is 15.4 µM (active).

Turning to `NS(=O)(=O)c1ccc(CCNC(=O)C2CCN(c3ncnc4c3nc3n4CCCCC3)CC2)cc1`, the IC50 in test [3] was > 20 µM (inactive).

Regarding `CNS(=O)(=O)c1cc2c3c(cccc3c1)C(=O)NC2=O`, the IC50 in the test on H9c2 is 16.9 µM (active).

For `O=C1NC(=O)N(CCc2ccccc2)C(=O)/C1=C/NCCCn1ccnc1`, the EC50 in test [1] and in [2] was > 300 µM (not active) each time.

For the compound `CCOC(=O)c1nn(-c2cccc(OC)c2)c2nc(Nc3ccccc3)cc(=O)n12`, the figures for the concentration for a half-maximal effect (EC50) (in the test with Streptococcus; at Streptokinase A; in [4]) were 30 µM (active), > 150 µM (not active) and 3.12 µM (active), respectively. Besides, in the test with H9c2, the IC50 is > 79 µM (inactive).

Consider `Oc1ccc(C[C@H]2CNCCN2CCCCC2CCCCC2)cc1`, for which the IC50 in test [3] was > 20 µM (inactive). Further, the CC50 in [5] was 13.2 µM (active).

On to `Cc1nnc(NC(=O)Cc2cccs2)s1`, for which, on Estrogen receptor, the IC50 was 19 µM (active).

`CCOC(=O)C1CCCN(C(=O)CCC(=O)Nc2ccc3nc(N4CCOCC4)cc(C)c3c2)C1` (stereo unspecified): the IC50 in the test with H9c2 is > 79 µM (inactive).

As for `CC1CCC2(CC1)NC(=O)N(CC(=O)c1ccc[nH]1)C2=O` (stereo unspecified), the IC50 against Estrogen receptor is > 50 µM (not active).

In the case of `N#Cc1c(SCC(=O)Nc2nccs2)nc2c(c1-c1ccco1)CCCC2`, the EC50 in test [6] is > 195 µM (not active). The IC50 on Estrogen receptor is given as > 50 µM (not active).

For the compound `COc1ccc(Cn2c(N)c(C(=O)NCc3ccco3)c3nc4ccccc4nc32)cc1`, the results for the AC50 at Cytochrome P450 2D6 and at Cytochrome P450 2C9 were 14.1 µM (inconclusive) and 1 µM (inconclusive), respectively. In addition, the concentration for half-maximal inhibition (IC50) on Estrogen receptor was 17.3 µM (active).

Regarding `C=CCOc1cccc(C2C(C(=O)c3ccco3)=C(O)C(=O)N2Cc2ccco2)c1` (stereo unspecified), the EC50 in [1] and in test [2] was > 300 µM (not active) throughout.

In the case of `O=C(CSc1nnc(-c2ccco2)[nH]1)Nc1sc2c(c1C(=O)Nc1ccccc1)CCCC2`, the IC50 at Estrogen receptor was 40 µM (not active).

With `O=C(CC1CC2CCC1C2)Nc1nc(-c2ccccn2)cs1` (stereo unspecified), the EC50 is > 38 µM (not active) in test [7]; 13.2 µM (active) with Streptococcus; > 150 µM (inactive) in test [8]; > 150 µM (not active) on Streptokinase A; 4.21 µM (active) in test [4]. In the test on H9c2, the IC50 was > 79 µM (inactive).

On to `O=C(CCCCCn1c(=O)[nH]c2ccccc2c1=O)NCCCN1CCN(c2ccccc2F)CC1`, for which, in [3], the IC50 was > 20 µM (inactive).

As to `Cc1ccc(NC(=O)CCCc2nc(O)c3ccccc3n2)c(Cl)c1`, in the test on H9c2, the IC50 is 25.1 µM (active).

For `CC1(C)Cc2c(sc(NC(=O)c3ccc4c(c3)OCCO4)c2C(N)=O)C(C)(C)N1`, the IC50 in test [3] was > 20 µM (inactive).

`O=C(CCc1nc(O)c2ccccc2n1)NNC(=O)c1ccc(F)cc1`: in the test on H9c2, the IC50 was > 79 µM (inactive).

Turning to `O=C(N/N=C/c1ccccn1)c1[nH]c2ccc([N+](=O)[O-])cc2c1-c1ccccc1`, the IC50 in the test with H9c2 was > 79 µM (inactive).

For the compound `CO/C(O)=C(/C=N/c1ccc(O)cc1)[N+](=O)[O-]`, the concentration for half-maximal inhibition (IC50) in test [9] is 25.5 µM (active); at Large T antigen, 62.1 µM (active).

In the case of `COc1ccc(/C(O)=C/C2=NCC3c4ccccc4CCN3C2=O)cc1` (stereo unspecified), the EC50 in test [1] and in test [2] was > 300 µM (not active) each time.

Take `C/C(=N\NC(=O)CSc1nc2ccccc2o1)c1ccc(O)cc1`: the half-maximal inhibitory concentration (IC50) in test [9] is 86.9 µM (active); on Large T antigen, 18.9 µM (active).

As a reminder, the EC50 is the concentration that produces a half-maximal response. As a reminder, the IC50 is the concentration that gives 50% inhibition. As a reminder, the AC50 is the midpoint of the concentration-response curve, whichever way the signal moves.
